# According to patent publication US20160214956A1, “NOVEL SOLUBLE GUANYLATE CYCLASE ACTIVATORS AND THEIR USE” (GLAXOSMITHKLINE INTELLECTUAL PROPERTY DEVELOPMENT LIMITED, priority 2013, published 2016):
# Molecular target: T1, human sGC (Homo sapiens, UniProt Q02153)
# T1 sequence (Q02153 1-619): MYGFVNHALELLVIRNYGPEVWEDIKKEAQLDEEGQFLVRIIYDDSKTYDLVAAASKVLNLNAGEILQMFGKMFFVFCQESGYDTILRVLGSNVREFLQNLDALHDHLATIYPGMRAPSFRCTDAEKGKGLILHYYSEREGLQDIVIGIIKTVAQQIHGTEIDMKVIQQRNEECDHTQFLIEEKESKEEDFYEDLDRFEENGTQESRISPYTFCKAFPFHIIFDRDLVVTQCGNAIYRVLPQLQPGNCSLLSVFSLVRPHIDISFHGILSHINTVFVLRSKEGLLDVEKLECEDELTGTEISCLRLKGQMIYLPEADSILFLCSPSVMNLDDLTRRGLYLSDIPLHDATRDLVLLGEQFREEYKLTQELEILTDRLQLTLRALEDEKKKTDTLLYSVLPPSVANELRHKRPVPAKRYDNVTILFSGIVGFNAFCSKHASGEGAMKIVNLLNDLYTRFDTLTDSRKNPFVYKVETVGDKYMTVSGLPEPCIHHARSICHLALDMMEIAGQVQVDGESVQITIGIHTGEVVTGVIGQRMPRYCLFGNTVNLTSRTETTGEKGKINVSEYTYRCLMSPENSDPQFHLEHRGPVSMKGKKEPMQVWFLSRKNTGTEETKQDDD
# T1 sequence (Q02108 1-690 partner): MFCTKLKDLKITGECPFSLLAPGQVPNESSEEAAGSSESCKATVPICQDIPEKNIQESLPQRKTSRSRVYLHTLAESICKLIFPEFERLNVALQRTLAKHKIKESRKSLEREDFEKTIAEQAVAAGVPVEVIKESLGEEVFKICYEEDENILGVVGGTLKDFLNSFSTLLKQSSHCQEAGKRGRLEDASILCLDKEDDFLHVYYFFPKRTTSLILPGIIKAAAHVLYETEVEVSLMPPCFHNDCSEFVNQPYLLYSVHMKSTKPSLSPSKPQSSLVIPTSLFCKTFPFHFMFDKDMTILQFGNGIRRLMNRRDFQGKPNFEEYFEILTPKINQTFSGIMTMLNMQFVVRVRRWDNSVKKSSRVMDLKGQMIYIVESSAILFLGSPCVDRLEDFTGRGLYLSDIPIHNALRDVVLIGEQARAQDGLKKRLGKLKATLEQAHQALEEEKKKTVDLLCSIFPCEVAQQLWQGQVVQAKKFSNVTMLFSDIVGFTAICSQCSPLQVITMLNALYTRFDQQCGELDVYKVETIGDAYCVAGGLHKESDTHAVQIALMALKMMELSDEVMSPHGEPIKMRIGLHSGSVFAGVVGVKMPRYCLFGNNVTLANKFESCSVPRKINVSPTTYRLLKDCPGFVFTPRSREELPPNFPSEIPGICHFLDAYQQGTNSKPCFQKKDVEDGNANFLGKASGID
# Test: sGC enzyme assay, fluorescence polarisation of labelled cGMP
# Format: biochemical
# Conditions: human sGC 1 nM, FP assay; concentration able to increase by 5-fold basal cGMP
# Description: The activity of soluble guanylate cyclase (sGC) was tested in an assay based on measuring the fluorescent polarisation (FP) signal of fluorescently labelled cGMP. FP increased on interaction with an anti-cGMP antibody as the motility of the molecule was reduced. Newly produced cGMP displaced the interaction giving rise to a decrease in polarisation and FP signal which was equated to enzyme activity. Compounds were incubated with human sGC, anti-cGMP antibody, the GTP substrate and fluorescently labelled cGMP. After a period of one hour the assay was stopped with the addition of EDTA and after a further hour the assay was read.
# Human sGC was thawed and resuspended in assay buffer (100 mM TRIS, 10 mM MgCl2, 0.2 mM Tween 20, pH7.4, containing 1:100 dilution of sheep anti-cGMP) to give final concentration of 1 nM in the well. A substrate solution was prepared containing GTP and 8-fluo-cGMP in de-ionized water to a final concentration of 25 μM and 50 nM respectively. Assay plates containing 5 μL of various test compounds and of a standard agonist (50 μM-50 nM) in 1% DMSO as 6 point, four fold dilutions across a 96 well plate were used in the assay. The plate also contained 6 wells of DMSO (1%) to produce high control and a cGMP standard curve (14 nM to 10 μM) to convert FP data to cGMP concentration. 25 μL of enzyme mix and 20 μl of substrate mix described above were added to each well of the plate. Samples were mixed on an orbital shaker and then incubated at room temperature for 1 hour. After this incubation period 5 μl of 0.5M EDTA was added to all wells and the plates were incubated for a further hour at room temperature prior to reading the FP signal in an appropriate reader. For data handling FP data were converted to cGMP concentrations and then fitted using ActivityBase software. The activity of a test compound was determined as the pEC500 value which is the concentration able to increase by 5-fold basal cGMP.
row,sGC pEC500,SMILES
1,6.6,"COCCOc1ccc(COc2ccccc2-c2cccc(-n3ncc(C(=O)O)c3C(F)(F)F)n2)cc1 [Example 4, 1-(6-(2-((4-(2-methoxyethoxy)benzyl)oxy)phenyl)pyridin-2-yl)-5-(trifluoromethyl)-1H-pyrazole-4-carboxylic acid]"
2,7.1,"COCCCOc1ccc(COc2ccccc2-c2cccc(-n3ncc(C(=O)O)c3C(F)(F)F)n2)cc1 [Example 7, 1-(6-(2-((4-(3-methoxypropoxy)benzyl)oxy)phenyl)pyridin-2-yl)-5-(trifluoromethyl)-1H-pyrazole-4-carboxylic acid]"
3,7.28,"N#CCCCOc1ccc(COc2ccccc2-c2cccc(-n3ncc(C(=O)O)c3C(F)(F)F)n2)cc1 [Example 8, 1-(6-(2-((4-(3-cyanopropoxy)benzyl)oxy)phenyl)pyridin-2-yl)-5-(trifluoromethyl)-1H-pyrazole-4-carboxylic acid]"
4,6.59,"Cc1cc(OCCCC(=O)O)ccc1COc1ccccc1-c1cccc(-n2ncc(C(=O)O)c2C(F)(F)F)n1 [Example 12, 1-(6-(2-((4-(3-carboxypropoxy)-2-methylbenzyl)oxy)phenyl)pyridin-2-yl)-5-(trifluoromethyl)-1H-pyrazole-4-carboxylic acid]"
